Experimental data published in US8389739B1, “Modulators of retinoid-related orphan receptor gamma” (Orphagen Pharmaceuticals, priority 2006, dated 2013).
Where two headings read alike, the source gives them in different places.

Assays:
[1] = biological target: T1, mLXRα (Liver X receptor alpha) (Mus musculus, UniProt Q9Z0Y9); assay: Transcriptional assay of LXRα (Gal4-LXRα hybrid); assay type: cell-based
T1 construct: 172-455; expressed in transfected cells; host or cells: CHO cells, transient transfection
T1 sequence (Q9Z0Y9 172-445 limits assumed): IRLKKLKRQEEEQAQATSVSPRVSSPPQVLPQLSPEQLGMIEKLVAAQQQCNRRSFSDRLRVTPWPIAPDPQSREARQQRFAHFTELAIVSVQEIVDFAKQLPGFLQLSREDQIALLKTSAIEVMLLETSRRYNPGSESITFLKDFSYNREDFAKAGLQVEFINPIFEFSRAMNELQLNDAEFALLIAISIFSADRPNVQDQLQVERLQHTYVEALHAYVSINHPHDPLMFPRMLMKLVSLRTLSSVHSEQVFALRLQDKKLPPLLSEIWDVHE
Method: A firefly luciferase reporter gene for Gal4 DBD hybrid receptors, such as Gal4-RORγ, contains five copies of the Gal4 17-mer response element in its promoter and the coding sequence for firefly luciferase (pG5-luc, Promega). CHO (Chinese Hamster Ovary) cells were cultured in Ham's F12 medium supplemented with 10% fetal calf serum (Gemini Biologicals), 10 μg/ml penicillin and streptomycin, and were maintained in a humidified 37° C. incubator (Thermo Electron, Steri-Cycle) with 5% CO2. 24 hours before transfection, cells were plated in T175 flasks (5×10^6 cells/flask) or T75 flasks (1.7×10^6 cells/flask). Transient transfection of CHO cells was performed using TransIT-CHO reagents (Minis, Madison, Wis.) with a mixing ratio of 2:6:1 between plasmid DNA (in μg), TransIT-CHO (in μl) and CHO-mojo (in μl).
Plates are maintained at 37° C. in a humidified atmosphere with 7% CO2 overnight. Four (4) hours after cell seeding, compounds dissolved in DMSO at 10 mM were added to cells at final concentrations of 20 micromolar (μM) to 20 nanomolar (nM) in 0.2% DMSO in triplicate plates. Approximately 40 hours later, cytotoxicity in the assay well was characterized by addition of the dye resazurin (O'Brien, Wilson et al. 2000) to a final concentration of 3 μM. […] Percent viability was determined as 2 hour fluorescence, minus background at t=0 hours, normalized to DMSO controls. For detection of luciferase activity, media was removed from plates after the measurement of resazurin conversion, and SteadyLite luciferase reagent (Perkin-Elmer) was added (30 μl/well). Luminescence is detected with a Victor 2-V plate reader (Perkin-Elmer) and normalized to luciferase activity of DMSO control wells alone.
A transcriptional assay for LXRα, using a Gal4-LXRα hybrid, was implemented in order to compare RORγ ligand potencies. In addition to LXRα, transcriptional assays for a number of other major nuclear receptors were developed.

mRORγ LBD = biological target: T2, mRORγ LBD (Mus musculus, UniProt P51450); assay: Biochemical assay, coregulatory peptide recruitment to GST-RORγ LBD (FRET)
T2 construct: made in house; host or cells: Sf9 insect cells, baculovirus; cleared lysate used directly
T2 sequence (P51450 251-516): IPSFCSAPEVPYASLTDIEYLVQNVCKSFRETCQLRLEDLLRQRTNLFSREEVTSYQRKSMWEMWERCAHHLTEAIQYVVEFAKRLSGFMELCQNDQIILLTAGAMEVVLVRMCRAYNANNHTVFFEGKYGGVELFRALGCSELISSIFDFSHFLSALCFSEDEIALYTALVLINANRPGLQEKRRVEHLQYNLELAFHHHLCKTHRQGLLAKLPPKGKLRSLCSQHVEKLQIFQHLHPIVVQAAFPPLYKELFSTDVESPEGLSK
From the text: GST-RORγ was generated by subcloning the RORγ-LBD into pET-41a, a vector which expresses GST fusion proteins in bacteria.
The cloning steps for GST-RORγ were as follows. The mRORγ LBD was excised from Gal4-mRORγ (see above for cloning steps) at BamHI and HindIII sites of Sequence 1 and cloned into the corresponding sites of pET-41a(+) (EMD Biosciences, San Diego, Calif.). A GST-mRORγ fragment was then excised from pET-41a(+) at XbaI and XhoI sites and cloned into a pcDNA3.1vector (Invitrogen, Carlsbad, Calif.) restricted at NheI and XhoI sites. Plasmid GST-mRORγ-pcDNA3.1 was used as a PCR template to generate a GST-mRORγ fragment that was later cloned into pENTR/D-TOPO vector (Invitrogen, Carlsbad, Calif.) by standard cloning techniques recommended by the manufacturer of the vector. The nucleotide sequence of GST-mRORγ is shown below:
For baculoviral expression of RORγ, the cDNA fragment of GST-RORγ— LBD, was subcloned from pET-41a into the pENTR/D-TOPO vector using a commercially-available kit (BaculoDirect, Invitrogen). Briefly, GST-RORγ carried by pENTR/D-TOPO was transfected into mono-layer Sf9 cells (8×10^5/well in 6-well plates) by Cellfectin (Invitrogen). Sf9 cells were incubated at 27° C. in a non-humidified incubator for 72 hours. Cell media was collected as P1 viral stock and used to further infect Sf9 cells to generate P2 and P3 virus. […] A plaque assay was performed to determine the titer of P3 virus and to isolate single plaques. P4 virus was generated from a single plaque and propagated on a larger scale.
Adherent SF9 cells were infected with baculovirus carrying GST-RORγ and were cultured for 72 hours. Sf9 cell were then subject to a brief sonication in a lysis buffer (20 mM phosphate, pH 6.8, 50 mM KCl, 50 mM NaCl, 0.5 mM EDTA, 50% glycerol, 0.001% NP-40 and 1 mM DTT) and centrifuged at 3000 rpm for 15 minutes. […] Cleared cell lysate was stored at −70° C. and is directly utilized in the coregulatory peptide recruitment assay.
The labeled probes anti-GST-APC and SA-RPE were purchased from Prozyme (San Leandro, Calif.). Compounds were added directly from a DMSO solution to a final concentration of 1-2% DMSO. Fluorescence was measured on a Wallac Victor 2 V plate reader equipped with a 670/40 nm filter (Omega Optical, Brattleboro, Vt.) for APC emission (Channel A) and a 600/25 bandpass filter for monitoring the RPE emission (Channel B).

[2] = Table 6, read-out: Potency (EC50) at mLXRα
[3] = Table 4A, peptide K1, no agonist present, medians of two or more assays, unit inferred, read-out: EC50 Biochemical

## O=S(=O)(c1ccccc1)N(CC(F)(F)F)c1ccc(C(O)(C(F)(F)F)C(F)(F)F)cc1 [Compound T0901317, N-(2,2,2-Trifluoro-ethyl)-N-[4-(2,2,2-trifluoro-1-hydroxy-1-trifluoromethyl-ethyl)-phenyl]-benzenesulfonamide, reference compound]
[1]
  Emax: 100%
[1]; [2]
  EC50: 100 to 1000 nM
[1]; Table 7, no unit printed for this column (b114 gives 1.5 μM for OR-1050), read-out: Transcriptional Assay of LXRα EC50
  EC50: 140 nM
[1]; activity of standard ligand at 20 μM
  Efficacy at mLXRα: 120X

## C[C@@H]1CC[C@@]2(OC1)O[C@H]1C[C@H]3[C@@H]4CC[C@H]5C[C@@H](O)CC[C@]5(C)[C@H]4C[C@@H](O)[C@]3(C)[C@H]1[C@@H]2C [OR-885, 5α,20α, 22α, 25D-SPIROSTAN-3β, 12β-DIOL]
[1]
  EC50: > 10000 nM
mRORγ LBD
  EC50: 2.5 µM

## COC(C)CCC(C)C1CCC2C3CC(O)C4CC(O)CCC4(C)C3CCC12C (stereo not shown) [OR-12872, 17-(4-Methoxy-1-methyl-pentyl)-10,13-dimethyl-hexadecahydro-cyclopenta[a]phenanthrene-3,6-diol]
[1]; [2]
  EC50: > 10000 nM
mRORγ LBD; Table 2, agonists, biotinylated peptide K, 50% of estimated maximum FRET signal, read-out: EC50 in micromolar at mRORγ Biochemical
  EC50: 0.052 µM
mRORγ LBD; agonist, read-out: potency in the biochemical assay
  EC50: < 0.1 µM

## CCn1c(CNc2ccc(Cl)cc2)nnc1SCC(=O)Nc1cccc2ccccc12 [OR-133008, 2-{5-[(4-Chloro-phenylamino)-methyl]-4-ethyl-4H-[1,2,4]triazol-3-ylsulfanyl}-N-naphthalen-1-yl-acetamide]
[1]; [2]
  EC50: > 10000 nM
mRORγ LBD; [3]
  EC50: 1.61 µM

## COc1c(C=NNc2nc(N3CCCCC3)nc(N3CCCCC3)n2)cccc1[N+](=O)[O-] [OR-2161, N-(4,6-Di-piperidin-1-yl-[1,3,5]triazin-2-yl)-N′-(2-methoxy-3-nitro-benzylidene)-hydrazine]
[1]; [2]
  EC50: > 10000 nM
mRORγ LBD; [3]
  EC50: 4.5 µM

## CCN(c1ccc(C(O)(C(F)(F)F)C(F)(F)F)cc1)S(=O)(=O)c1ccc([N+](=O)[O-])cc1 [OR-1050, N-Ethyl-4-nitro-N-[4-(2,2,2-trifluoro-1-hydroxy-1-trifluoromethyl-ethyl)-phenyl]-benzenesulfonamide]
[1]
  Emax: > 80%
  potency in repression of RORγ transcription relative to induction of LXR transcription: approximately 5 fold
[1]; [2]
  EC50: 1000 to 10000 nM
[1]; comparison of transcriptional assays for RORγ and LXRα (Table 7)
  specificity for RORγ versus LXRα: more specific for RORγ than LXRα
[1]; read-out: EC50 at LXRα in transcriptional assays
  EC50: 1500 nM
mRORγ LBD; Table 1, mRORγ and peptide K1, read-out: Assay EC50 in micromolar at mRORγ Biochemical
  EC50: 0.9 µM
mRORγ LBD; Table 7, taken from Table 1 (peptide K1), read-out: Assay EC50 in micromolar at mRORγ Biochemical
  EC50: 0.9 µM

## CC(=O)O[C@H]1CC[C@@]2(C)C(CC[C@]3(C)C2C(=O)C=C2C4[C@@H](C)[C@H](C)CC[C@]4(C(=O)O)CC[C@]23C)C1(C)C (stereo in doubt) [OR-13571, 10-Acetoxy-1,2,6a,6b,9,9,12a-heptamethyl-13-oxo-1,3,4,5,6,6a,6b,7,8,8a,9,10,11,12,12a,12b,13,14b-octadecahydro-2H-picene-4a-carboxylic acid]
[1]; [2]
  EC50: > 10000 nM
mRORγ LBD; [3]
  EC50: 1.2 µM
